Values of other authors in patent publication US8895061B2, “Compositions comprising carisoprodol and methods of use thereof” (Meda Pharmaceuticals Inc., priority 2007, dated 2014).

Tests used:
[1] = for influence of polymorphic debrisoquine hydroxylation on elimination: poor metabolizers of debrisoquine, single oral doses
[2] = in vivo

Structure (SMILES) | influence of polymorphic debrisoquine hydroxylation on elimination [1] | mean serum clearance of carisoprodol ([1]; poor metabolizers of mephenyloin compared with extensive metabolizers, single oral dose 700 mg carisoprodol) | onset of action [2] | mean serum clearance of meprobamate ([1]; poor metabolizers of mephenyloin compared with extensive metabolizers, single oral dose 400 mg meprobamate)
CCCC(C)(COC(N)=O)COC(=O)NC(C)C (centres unmarked) [carisoprodol, N-isopropyl-2-methyl-2-propyl-1,3-propanediol dicarbamate] | did not influence the elimination | four times lower | rapid | 
CCCC(C)(COC(N)=O)COC(N)=O [meprobamate] | did not influence the elimination |  |  | did not differ between the two groups
